{"source": "paper PMC8401933", "about": "(Molecules, 2021)", "experiment_in_all_cases": "KINOMEscan binding", "details_in_all_cases": "read-out: Percent Control", "key": {"[1]": {"biological_target": "T1, SRPK3 (Homo sapiens, UniProt Q9UPE1)", "T1 construct": "purchased Eurofins DiscoverX KINOMEscan"}, "[2]": {"biological_target": "T2, GRK4 (Homo sapiens, UniProt P32298)", "T2 construct": "purchased Eurofins DiscoverX KINOMEscan"}, "[3]": {"biological_target": "T3, LATS1 (Homo sapiens, UniProt O95835)", "T3 construct": "purchased Eurofins DiscoverX KINOMEscan"}, "[4]": {"biological_target": "T4, LTK (Homo sapiens, UniProt P29376)", "T4 construct": "purchased Eurofins DiscoverX KINOMEscan"}, "[5]": {"biological_target": "T5, CDKL1 (Homo sapiens, UniProt Q00532)", "T5 construct": "purchased Eurofins DiscoverX KINOMEscan"}, "[6]": {"biological_target": "T6, PAK1 (Homo sapiens, UniProt Q13153)", "T6 construct": "purchased Eurofins DiscoverX KINOMEscan"}, "[7]": {"biological_target": "T7, PIK3C2G (Homo sapiens, UniProt O75747)", "T7 construct": "purchased Eurofins DiscoverX KINOMEscan"}, "[8]": {"biological_target": "T8, p38-gamma (Homo sapiens, UniProt P53778)", "T8 construct": "purchased Eurofins DiscoverX KINOMEscan"}, "[9]": {"biological_target": "T9, DCAMKL3 (Homo sapiens, UniProt Q9C098)", "T9 construct": "purchased Eurofins DiscoverX KINOMEscan"}, "[10]": {"biological_target": "T10, NEK3 (Homo sapiens, UniProt P51956)", "T10 construct": "purchased Eurofins DiscoverX KINOMEscan"}, "[11]": {"biological_target": "T11, MYLK (Homo sapiens, UniProt Q15746)", "T11 construct": "purchased Eurofins DiscoverX KINOMEscan"}, "[12]": {"biological_target": "T12, PIK3C2B (Homo sapiens, UniProt O00750)", "T12 construct": "purchased Eurofins DiscoverX KINOMEscan"}, "[13]": {"biological_target": "T13, PRKCD (Homo sapiens, UniProt Q05655)", "T13 construct": "purchased Eurofins DiscoverX KINOMEscan"}, "[14]": {"biological_target": "T14, YSK1 (Homo sapiens, UniProt O00506)", "T14 construct": "purchased Eurofins DiscoverX KINOMEscan"}, "[15]": {"biological_target": "T15, MINK (Homo sapiens, UniProt Q8N4C8)", "T15 construct": "purchased Eurofins DiscoverX KINOMEscan"}, "[16]": {"biological_target": "T16, TAOK1 (Homo sapiens, UniProt Q7L7X3)", "T16 construct": "purchased Eurofins DiscoverX KINOMEscan"}, "[17]": {"biological_target": "T17, YES (Homo sapiens, UniProt P07947)", "T17 construct": "purchased Eurofins DiscoverX KINOMEscan"}, "[18]": {"biological_target": "T18, ANKK1 (Homo sapiens, UniProt Q8NFD2)", "T18 construct": "purchased Eurofins DiscoverX KINOMEscan"}, "[19]": {"biological_target": "T19, PRKCI (Homo sapiens, UniProt P41743)", "T19 construct": "purchased Eurofins DiscoverX KINOMEscan"}, "[20]": {"biological_target": "T20, CLK4 (Homo sapiens, UniProt Q9HAZ1)", "T20 construct": "purchased Eurofins DiscoverX KINOMEscan"}, "[21]": {"biological_target": "T21, PAK3 (Homo sapiens, UniProt O75914)", "T21 construct": "purchased Eurofins DiscoverX KINOMEscan"}, "[22]": {"biological_target": "T22, PIK3CA (Homo sapiens, UniProt P42336)", "T22 construct": "purchased Eurofins DiscoverX KINOMEscan"}, "[23]": {"biological_target": "T23, ADCK3 (Homo sapiens, UniProt Q8NI60)", "T23 construct": "purchased Eurofins DiscoverX KINOMEscan", "T23 sequence (Q8NI60 163-647)": "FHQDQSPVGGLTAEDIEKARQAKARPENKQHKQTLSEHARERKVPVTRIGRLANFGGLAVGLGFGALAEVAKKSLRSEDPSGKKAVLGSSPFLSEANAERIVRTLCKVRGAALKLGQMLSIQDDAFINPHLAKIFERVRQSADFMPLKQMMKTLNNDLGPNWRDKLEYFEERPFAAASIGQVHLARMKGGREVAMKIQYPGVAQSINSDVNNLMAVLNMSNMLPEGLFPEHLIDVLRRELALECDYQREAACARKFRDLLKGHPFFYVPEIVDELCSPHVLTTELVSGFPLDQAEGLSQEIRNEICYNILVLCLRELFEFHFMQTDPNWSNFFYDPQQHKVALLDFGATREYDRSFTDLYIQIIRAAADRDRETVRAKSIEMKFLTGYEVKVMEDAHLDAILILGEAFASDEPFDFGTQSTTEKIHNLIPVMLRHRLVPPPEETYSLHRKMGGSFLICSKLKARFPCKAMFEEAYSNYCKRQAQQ"}, "[24]": {"biological_target": "T24, MAP3K3 (Homo sapiens, UniProt Q99759)", "T24 construct": "purchased Eurofins DiscoverX KINOMEscan"}, "[25]": {"biological_target": "T25, NLK (Homo sapiens, UniProt Q9UBE8)", "T25 construct": "purchased Eurofins DiscoverX KINOMEscan"}, "[26]": {"biological_target": "T26, YANK1 (Homo sapiens, UniProt Q8WU08)", "T26 construct": "purchased Eurofins DiscoverX KINOMEscan"}, "[27]": {"biological_target": "T27, FGFR2 (Homo sapiens, UniProt P21802)", "T27 construct": "purchased Eurofins DiscoverX KINOMEscan"}, "[28]": {"biological_target": "T28, PIK3CA(C420R) (Homo sapiens, UniProt P42336, C420R)", "T28 construct": "purchased Eurofins DiscoverX KINOMEscan"}, "[29]": {"biological_target": "T29, MST4 (Homo sapiens, UniProt Q9P289)", "T29 construct": "purchased Eurofins DiscoverX KINOMEscan"}, "[30]": {"biological_target": "T30, PRKCE (Homo sapiens, UniProt Q02156)", "T30 construct": "purchased Eurofins DiscoverX KINOMEscan"}, "[31]": {"biological_target": "T31, WNK2 (Homo sapiens, UniProt Q9Y3S1)", "T31 construct": "purchased Eurofins DiscoverX KINOMEscan"}, "[32]": {"biological_target": "T32, YANK2 (Homo sapiens, UniProt Q9NY57)", "T32 construct": "purchased Eurofins DiscoverX KINOMEscan", "T32 sequence (Q9NY57 whole entry)": "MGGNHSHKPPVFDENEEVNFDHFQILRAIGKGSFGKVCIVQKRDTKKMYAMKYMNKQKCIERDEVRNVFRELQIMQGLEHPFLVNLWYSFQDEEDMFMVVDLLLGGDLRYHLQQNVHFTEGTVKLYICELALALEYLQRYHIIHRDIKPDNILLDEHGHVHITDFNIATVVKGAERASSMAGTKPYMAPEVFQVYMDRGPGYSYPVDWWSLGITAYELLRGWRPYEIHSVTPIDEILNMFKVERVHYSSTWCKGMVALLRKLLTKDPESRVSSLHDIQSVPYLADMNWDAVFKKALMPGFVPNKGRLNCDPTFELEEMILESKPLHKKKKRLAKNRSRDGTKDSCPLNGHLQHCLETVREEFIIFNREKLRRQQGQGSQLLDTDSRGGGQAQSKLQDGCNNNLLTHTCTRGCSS"}, "[33]": {"biological_target": "T33, TAOK3 (Homo sapiens, UniProt Q9H2K8)", "T33 construct": "purchased Eurofins DiscoverX KINOMEscan", "T33 sequence (Q9H2K8 whole entry)": "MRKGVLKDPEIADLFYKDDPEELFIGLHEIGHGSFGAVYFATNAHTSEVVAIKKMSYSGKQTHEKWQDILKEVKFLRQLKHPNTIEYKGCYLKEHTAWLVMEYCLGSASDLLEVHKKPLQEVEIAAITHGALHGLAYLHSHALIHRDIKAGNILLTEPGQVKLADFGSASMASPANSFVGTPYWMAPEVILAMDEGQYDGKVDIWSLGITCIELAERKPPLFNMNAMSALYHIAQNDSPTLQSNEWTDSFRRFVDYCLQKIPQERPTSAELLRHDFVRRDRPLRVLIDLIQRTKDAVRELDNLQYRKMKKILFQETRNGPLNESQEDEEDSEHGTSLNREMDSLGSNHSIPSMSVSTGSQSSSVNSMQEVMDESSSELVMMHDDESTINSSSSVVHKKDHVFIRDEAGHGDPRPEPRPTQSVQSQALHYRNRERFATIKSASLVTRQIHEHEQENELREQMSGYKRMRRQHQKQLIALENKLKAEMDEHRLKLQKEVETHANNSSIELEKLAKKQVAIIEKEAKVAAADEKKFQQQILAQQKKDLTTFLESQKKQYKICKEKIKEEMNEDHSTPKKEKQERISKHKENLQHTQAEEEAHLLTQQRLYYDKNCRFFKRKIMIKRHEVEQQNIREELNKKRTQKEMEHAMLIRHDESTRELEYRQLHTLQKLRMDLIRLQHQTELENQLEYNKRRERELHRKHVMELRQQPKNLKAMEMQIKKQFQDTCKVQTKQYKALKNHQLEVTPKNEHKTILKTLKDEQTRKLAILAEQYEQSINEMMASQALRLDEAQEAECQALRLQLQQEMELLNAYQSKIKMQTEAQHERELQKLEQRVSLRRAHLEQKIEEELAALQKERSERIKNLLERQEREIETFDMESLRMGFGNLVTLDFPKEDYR"}, "[34]": {"biological_target": "T34, NEK7 (Homo sapiens, UniProt Q8TDX7)", "T34 construct": "purchased Eurofins DiscoverX KINOMEscan"}, "[35]": {"biological_target": "T35, PLK4 (Homo sapiens, UniProt O00444)", "T35 construct": "purchased Eurofins DiscoverX KINOMEscan", "T35 sequence (O00444 whole entry)": "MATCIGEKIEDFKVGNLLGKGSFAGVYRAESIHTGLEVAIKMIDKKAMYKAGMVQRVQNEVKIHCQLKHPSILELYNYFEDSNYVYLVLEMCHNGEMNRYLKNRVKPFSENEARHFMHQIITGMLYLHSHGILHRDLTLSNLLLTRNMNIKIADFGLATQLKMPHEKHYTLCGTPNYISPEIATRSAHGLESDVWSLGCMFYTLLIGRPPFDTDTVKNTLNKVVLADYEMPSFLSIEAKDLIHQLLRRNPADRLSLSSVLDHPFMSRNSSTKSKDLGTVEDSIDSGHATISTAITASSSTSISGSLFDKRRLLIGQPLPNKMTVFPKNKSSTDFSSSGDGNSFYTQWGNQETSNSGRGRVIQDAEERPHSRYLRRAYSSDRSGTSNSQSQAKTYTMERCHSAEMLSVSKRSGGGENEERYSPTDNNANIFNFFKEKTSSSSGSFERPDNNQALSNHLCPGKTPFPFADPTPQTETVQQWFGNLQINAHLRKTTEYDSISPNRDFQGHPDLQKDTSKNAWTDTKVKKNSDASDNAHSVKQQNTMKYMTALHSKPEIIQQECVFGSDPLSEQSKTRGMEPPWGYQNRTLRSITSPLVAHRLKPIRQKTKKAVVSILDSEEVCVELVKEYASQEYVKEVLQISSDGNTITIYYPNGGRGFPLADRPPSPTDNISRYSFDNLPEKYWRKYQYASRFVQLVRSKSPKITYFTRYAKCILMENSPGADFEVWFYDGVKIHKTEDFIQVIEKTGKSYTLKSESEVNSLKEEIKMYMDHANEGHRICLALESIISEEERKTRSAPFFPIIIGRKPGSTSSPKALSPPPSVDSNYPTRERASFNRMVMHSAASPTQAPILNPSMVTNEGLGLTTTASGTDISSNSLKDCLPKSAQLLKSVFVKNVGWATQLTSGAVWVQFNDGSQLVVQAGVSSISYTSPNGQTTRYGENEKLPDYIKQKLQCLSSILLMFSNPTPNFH"}, "[36]": {"biological_target": "T36, RSK4(Kin.Dom.1-N-terminal) (Homo sapiens, UniProt Q9UK32)", "T36 construct": "RSK4(Kin.Dom.1-N-terminal); purchased Eurofins DiscoverX KINOMEscan"}, "[37]": {"biological_target": "T37, TEC (Homo sapiens, UniProt P42680)", "T37 construct": "purchased Eurofins DiscoverX KINOMEscan", "T37 sequence (P42680 whole entry)": "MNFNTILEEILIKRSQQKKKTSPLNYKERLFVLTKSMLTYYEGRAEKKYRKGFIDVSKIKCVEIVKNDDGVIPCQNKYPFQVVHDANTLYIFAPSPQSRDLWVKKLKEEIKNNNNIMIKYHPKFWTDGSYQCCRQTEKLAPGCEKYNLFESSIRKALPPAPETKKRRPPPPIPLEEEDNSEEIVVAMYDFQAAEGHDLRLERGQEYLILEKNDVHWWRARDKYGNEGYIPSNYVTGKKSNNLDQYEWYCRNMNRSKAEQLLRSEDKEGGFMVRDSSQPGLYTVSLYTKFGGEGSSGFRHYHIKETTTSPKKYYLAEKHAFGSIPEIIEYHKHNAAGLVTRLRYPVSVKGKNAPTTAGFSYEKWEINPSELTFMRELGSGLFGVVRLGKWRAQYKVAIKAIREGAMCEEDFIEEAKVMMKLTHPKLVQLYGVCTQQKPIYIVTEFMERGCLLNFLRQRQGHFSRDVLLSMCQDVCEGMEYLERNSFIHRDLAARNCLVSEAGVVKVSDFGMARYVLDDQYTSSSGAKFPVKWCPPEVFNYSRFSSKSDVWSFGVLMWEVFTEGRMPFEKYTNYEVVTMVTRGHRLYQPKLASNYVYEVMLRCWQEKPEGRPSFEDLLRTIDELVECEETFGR"}, "[38]": {"biological_target": "T38, IRAK3 (Homo sapiens, UniProt Q9Y616)", "T38 construct": "purchased Eurofins DiscoverX KINOMEscan"}, "[39]": {"biological_target": "T39, NEK10 (Homo sapiens, UniProt Q6ZWH5)", "T39 construct": "purchased Eurofins DiscoverX KINOMEscan"}, "[40]": {"biological_target": "T40, ADCK4 (Homo sapiens, UniProt Q96D53)", "T40 construct": "purchased Eurofins DiscoverX KINOMEscan"}, "[41]": {"biological_target": "T41, AKT3 (Homo sapiens, UniProt Q9Y243)", "T41 construct": "purchased Eurofins DiscoverX KINOMEscan"}, "[42]": {"biological_target": "T42, MLK2 (Homo sapiens, UniProt Q02779)", "T42 construct": "purchased Eurofins DiscoverX KINOMEscan", "T42 sequence (Q02779 whole entry)": "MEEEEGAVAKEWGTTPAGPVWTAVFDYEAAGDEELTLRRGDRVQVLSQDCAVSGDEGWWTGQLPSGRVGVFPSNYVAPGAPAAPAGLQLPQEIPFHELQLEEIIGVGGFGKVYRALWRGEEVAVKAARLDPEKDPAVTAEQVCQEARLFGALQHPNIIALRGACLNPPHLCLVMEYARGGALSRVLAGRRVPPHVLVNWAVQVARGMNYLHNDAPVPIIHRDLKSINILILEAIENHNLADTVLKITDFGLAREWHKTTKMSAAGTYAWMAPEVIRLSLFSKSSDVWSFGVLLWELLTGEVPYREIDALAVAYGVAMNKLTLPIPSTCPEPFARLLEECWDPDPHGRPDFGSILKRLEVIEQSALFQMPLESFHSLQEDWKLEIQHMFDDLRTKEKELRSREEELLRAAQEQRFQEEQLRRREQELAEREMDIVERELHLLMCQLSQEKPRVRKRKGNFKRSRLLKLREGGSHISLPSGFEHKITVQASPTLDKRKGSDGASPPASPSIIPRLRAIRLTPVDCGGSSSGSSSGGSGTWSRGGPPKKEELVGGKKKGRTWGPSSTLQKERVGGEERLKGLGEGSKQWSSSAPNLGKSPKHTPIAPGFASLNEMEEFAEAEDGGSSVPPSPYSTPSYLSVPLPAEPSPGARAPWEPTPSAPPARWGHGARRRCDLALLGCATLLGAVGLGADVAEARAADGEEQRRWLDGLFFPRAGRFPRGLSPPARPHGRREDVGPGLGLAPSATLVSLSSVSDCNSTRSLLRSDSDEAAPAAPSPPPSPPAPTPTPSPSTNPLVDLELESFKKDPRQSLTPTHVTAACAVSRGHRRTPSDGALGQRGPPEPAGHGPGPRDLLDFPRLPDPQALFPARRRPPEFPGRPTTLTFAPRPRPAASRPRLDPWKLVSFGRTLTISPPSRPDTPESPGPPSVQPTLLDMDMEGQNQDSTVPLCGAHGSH"}, "[43]": {"biological_target": "T43, PAK6 (Homo sapiens, UniProt Q9NQU5)", "T43 construct": "purchased Eurofins DiscoverX KINOMEscan", "T43 sequence (Q9NQU5 whole entry)": "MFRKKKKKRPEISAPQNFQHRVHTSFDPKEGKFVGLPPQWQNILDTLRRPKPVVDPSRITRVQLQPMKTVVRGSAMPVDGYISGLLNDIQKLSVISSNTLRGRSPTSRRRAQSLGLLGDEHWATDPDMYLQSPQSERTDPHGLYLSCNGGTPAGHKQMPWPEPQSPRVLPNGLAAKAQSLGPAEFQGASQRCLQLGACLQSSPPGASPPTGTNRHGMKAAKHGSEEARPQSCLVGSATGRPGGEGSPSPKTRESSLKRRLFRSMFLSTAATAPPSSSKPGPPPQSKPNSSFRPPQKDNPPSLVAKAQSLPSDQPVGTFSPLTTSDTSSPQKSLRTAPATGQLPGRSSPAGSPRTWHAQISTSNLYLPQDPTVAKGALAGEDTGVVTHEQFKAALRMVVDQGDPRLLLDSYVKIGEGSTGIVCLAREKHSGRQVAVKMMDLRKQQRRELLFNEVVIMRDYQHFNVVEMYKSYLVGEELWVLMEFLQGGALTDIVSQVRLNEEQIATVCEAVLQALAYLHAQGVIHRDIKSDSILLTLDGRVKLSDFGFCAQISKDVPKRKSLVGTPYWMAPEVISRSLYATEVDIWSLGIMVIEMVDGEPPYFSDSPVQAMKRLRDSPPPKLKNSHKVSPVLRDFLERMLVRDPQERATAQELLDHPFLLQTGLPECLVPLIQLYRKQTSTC"}, "[44]": {"biological_target": "T44, SYK (Homo sapiens, UniProt P43405)", "T44 construct": "purchased Eurofins DiscoverX KINOMEscan"}, "[45]": {"biological_target": "T45, WEE1 (Homo sapiens, UniProt P30291)", "T45 construct": "purchased Eurofins DiscoverX KINOMEscan"}}, "data": [{"smiles": "CC(C)NC(=O)COc1cccc(-c2nc(Nc3ccc4[nH]ncc4c3)c3ccccc3n2)c1", "note": "[KD025, 2-(3-(4-((1H-indazol-5-yl)amino)quinazolin-2-yl)phenoxy)-N-isopropylacetamide]", "values": [{"measurement": "remaining binding at 10 µM", "setting": "[1]", "value": 5.7, "unit": "%"}, {"measurement": "remaining binding at 10 µM", "setting": "[2]", "value": 16, "unit": "%"}, {"measurement": "remaining binding at 10 µM", "setting": "[3]", "value": 48, "unit": "%"}, {"measurement": "remaining binding at 10 µM", "setting": "[4]", "value": 49, "unit": "%"}, {"measurement": "remaining binding at 10 µM", "setting": "[5]", "value": 56, "unit": "%"}, {"measurement": "remaining binding at 10 µM", "setting": "[6]", "value": 56, "unit": "%"}, {"measurement": "remaining binding at 10 µM", "setting": "[7]", "value": 58, "unit": "%"}, {"measurement": "remaining binding at 10 µM", "setting": "[8]", "value": 60, "unit": "%"}, {"measurement": "remaining binding at 10 µM", "setting": "[9]", "value": 64, "unit": "%"}, {"measurement": "remaining binding at 10 µM", "setting": "[10]", "value": 64, "unit": "%"}, {"measurement": "remaining binding at 10 µM", "setting": "[11]", "value": 66, "unit": "%"}, {"measurement": "remaining binding at 10 µM", "setting": "[12]", "value": 67, "unit": "%"}, {"measurement": "remaining binding at 10 µM", "setting": "[13]", "value": 70, "unit": "%"}, {"measurement": "remaining binding at 10 µM", "setting": "[14]", "value": 70, "unit": "%"}, {"measurement": "remaining binding at 10 µM", "setting": "[15]", "value": 71, "unit": "%"}, {"measurement": "remaining binding at 10 µM", "setting": "[16]", "value": 71, "unit": "%"}, {"measurement": "remaining binding at 10 µM", "setting": "[17]", "value": 71, "unit": "%"}, {"measurement": "remaining binding at 10 µM", "setting": "[18]", "value": 72, "unit": "%"}, {"measurement": "remaining binding at 10 µM", "setting": "[19]", "value": 76, "unit": "%"}, {"measurement": "remaining binding at 10 µM", "setting": "[20]", "value": 77, "unit": "%"}, {"measurement": "remaining binding at 10 µM", "setting": "[21]", "value": 77, "unit": "%"}, {"measurement": "remaining binding at 10 µM", "setting": "[22]", "value": 77, "unit": "%"}, {"measurement": "remaining binding at 10 µM", "setting": "[23]", "value": 78, "unit": "%"}, {"measurement": "remaining binding at 10 µM", "setting": "[24]", "value": 80, "unit": "%"}, {"measurement": "remaining binding at 10 µM", "setting": "[25]", "value": 80, "unit": "%"}, {"measurement": "remaining binding at 10 µM", "setting": "[26]", "value": 80, "unit": "%"}, {"measurement": "remaining binding at 10 µM", "setting": "[27]", "value": 84, "unit": "%"}, {"measurement": "remaining binding at 10 µM", "setting": "[28]", "value": 86, "unit": "%"}, {"measurement": "remaining binding at 10 µM", "setting": "[29]", "value": 88, "unit": "%"}, {"measurement": "remaining binding at 10 µM", "setting": "[30]", "value": 88, "unit": "%"}, {"measurement": "remaining binding at 10 µM", "setting": "[31]", "value": 88, "unit": "%"}, {"measurement": "remaining binding at 10 µM", "setting": "[32]", "value": 88, "unit": "%"}, {"measurement": "remaining binding at 10 µM", "setting": "[33]", "value": 89, "unit": "%"}, {"measurement": "remaining binding at 10 µM", "setting": "[34]", "value": 91, "unit": "%"}, {"measurement": "remaining binding at 10 µM", "setting": "[35]", "value": 93, "unit": "%"}, {"measurement": "remaining binding at 10 µM", "setting": "[36]", "value": 93, "unit": "%"}, {"measurement": "remaining binding at 10 µM", "setting": "[37]", "value": 95, "unit": "%"}, {"measurement": "remaining binding at 10 µM", "setting": "[38]", "value": 96, "unit": "%"}, {"measurement": "remaining binding at 10 µM", "setting": "[39]", "value": 96, "unit": "%"}, {"measurement": "remaining binding at 10 µM", "setting": "[40]", "value": 100, "unit": "%"}, {"measurement": "remaining binding at 10 µM", "setting": "[41]", "value": 100, "unit": "%"}, {"measurement": "remaining binding at 10 µM", "setting": "[42]", "value": 100, "unit": "%"}, {"measurement": "remaining binding at 10 µM", "setting": "[43]", "value": 100, "unit": "%"}, {"measurement": "remaining binding at 10 µM", "setting": "[44]", "value": 100, "unit": "%"}, {"measurement": "remaining binding at 10 µM", "setting": "[45]", "value": 100, "unit": "%"}]}]}
